Reference: patent US20190070154A1, “NEW METHODS OF USE FOR AN ANTI-DIARRHEA AGENT” (Duke University, priority 2015, published 2019)
pIC50: −log10 of the molar value.

Tested on: Wnt/β-catenin transcription
Assay: TOPFlash Reporter Assay (Wnt-3A-stimulated HEK293 cells stably transfected with p8xTOPFlash)
Assay type: cell-based
Details: for pIC50: Homo sapiens, read-out: Inhibition Wnt/β-catenin transcription TopFlash IC50; for pIC50 / Inhibition Wnt/β-catenin transcription TopFlash, % inhibition: HEK293 TOPFlash cells, Wnt-3A conditioned medium, 8 hour treatment
Method: Wnt-3A conditioned medium was prepared using L WNT-3A cells (ATCC(CRL-2647™) purchased from ATCC. Conditioned medium was obtained following published protocols (http://www.atcc.org/Products/All/CRL-2647.aspx#culturemethod) (Chen, M. Y.; Wang, J. B.; Lu, J. Y.; Bond, M. C.; Ren, X. R.; Lyerly, H. K.; Barak, L. S.; Chen, W. Biochemistry 2009, 48, 10267). HEK293 cells were stably transfected with p8×TOPFlash, Renilla luciferase plasmid pRL-TK (Promega), and pLKO.1 as previously published (Chen, M. Y.; Wang, J. B.; Lu, J. Y.; Bond, M. C.; Ren, X. R.; Lyerly, H. K.; Barak, L. S.; Chen, W. Biochemistry 2009, 48, 10267). Stably transfected cells were seeded in 100 μl of cell growth medium/well in 96-well plates at 100% confluency. Fifty microliters of Wnt-3A conditioned medium containing the chemical compounds to be tested or DMSO was added to each well. After an 8 hour treatment, the cells were washed once with PBS and lysed with 55 μl of Passive Lysis Buffer supplied in the Dual-Luciferase Reporter Assay kit (Promega, Madison, Wis.). Twenty-five microliters of cell lysate was used for measuring luciferase activity in a 96-well plate reader (FluoStar Optima, BMG Labtech, Chicago, Ill.). Data were fit using GraphPad Prism (mean±SEM, n>=2).
Data is from a single experiment unless otherwise noted. Data that is an average of two experiments is noted as “n=2” while data that is an average of three or more experiments is presented as the average plus or minus the standard error of the mean.

Compound	pIC50	other results
O=C(Nc1ccc([N+](=O)[O-])cc1Cl)c1cc(Cl)ccc1O [A, reference compound]	6.31	–
O=C(Nc1ncc([N+](=O)[O-])s1)c1ccccc1O [B, reference compound]	< 4.92	–
CC(=O)Oc1ccccc1C(=O)Nc1ncc([N+](=O)[O-])s1 [C, reference compound]	4.94	–
O=C(Nc1ccncc1Cl)c1cc(Cl)ccc1O [Compound 1, 5-chloro-N-(3-chloropyridin-4-yl)-2-hydroxybenzamide]	–	Inhibition Wnt/β-catenin transcription TopFlash, % inhibition (at 10 μM): 80% inhibition at 10 μM
O=C(Nc1ccc([N+](=O)[O-])cn1)c1cc(Cl)ccc1O [Compound 2, 5-chloro-2-hydroxy-N-(5-nitropyridin-2-yl)benzamide]	–	Inhibition Wnt/β-catenin transcription TopFlash, % inhibition (at 2 μM): 75% inhibition at 2 μM
O=C(Nc1ccc(C(F)(F)F)cn1)c1cc(Cl)ccc1O [Compound 3, 5-chloro-2-hydroxy-N-(5-(trifluoromethyl)pyridin-2-yl)benzamide]	5.78	–
O=C(Nc1ncc(C(F)(F)F)cc1Cl)c1cc(Cl)ccc1O [Compound 4, 5-chloro-N-(3-chloro-5-(trifluoromethyl)pyridin-2-yl)-2-hydroxybenzamide]	4.76	–
O=C(Nc1ncc([N+](=O)[O-])s1)c1cc(Cl)ccc1O [Compound 5, 5-chloro-2-hydroxy-N-(5-nitrothiazol-2-yl)benzamide]	5.06	–
CC(=O)Oc1ccccc1C(=O)Nc1ncc([N+](=O)[O-])s1 [nitazoxanide, reference compound]	–	Inhibition of the Wnt/Frizzled signaling pathway (statement in words): inhibitor of the Wnt/Frizzled signaling pathway
